# PMC8159160 (Journal of medicinal chemistry, 2021)
# Experiment: in vivo
# Conditions: mouse, plasma; for clearance: iv, 15 mg/kg
clearance [mL/min/kg],"AUC (po, 50 mg/kg) [µM·h]",Structure (SMILES)
20,–,"CCN1C(=O)[C@@H](NC(=O)c2cccc(C(F)(F)F)c2)[C@@H](c2ccc(F)cc2)c2c(CN)nn(-c3ccccc3)c21 (relative stereo) [Compound 40, N-(rel-(4S,5S)-3-(aminomethyl)-7-ethyl-4-(4-fluorophenyl)-6-oxo-1-phenyl-4,5,6,7-tetrahydro-1H-pyrazolo[3,4-b]pyridin-5-yl)-3-(trifluoromethyl)benzamide]"
86.7,2.9,"CCN1C(=O)[C@@H](NC(=O)c2cccc(C)c2)[C@@H](c2ccc(F)cc2)c2c(C)nn(-c3ccccc3)c21 (relative stereo) [Compound 2, N-(rel-(4S,5S)-7-ethyl-4-(4-fluorophenyl)-3-methyl-6-oxo-1-phenyl-4,5,6,7-tetrahydro-1H-pyrazolo[3,4-b]pyridin-5-yl)-3-methylbenzamide]"
